Laboratory results reported in patent publication US20260248783A1 (ASCLETIS BIOSCIENCE CO., LTD., priority 2021, published 2026).

Experiments:
PD-1/PD-L1 = target: T1, PD-1/PD-L1 (Homo sapiens, UniProt Q9NZQ7); assay: PD-1/PD-L1 Homogeneous Time-Resolved Fluorescence (HTRF) Binding Assay; details: PD-1/PD-L1 HTRF activity; 3 nM PD1, 10 nM PD-L1, 25° C.
T1 construct: Recombinant human PD-L1 protein (19-238) with a Histag at the C-terminus; purchased AcroBiosystems PD1-H5229 (PD-L1); PD1-H5257 (PD-1)
T1 sequence (Q9NZQ7 19-238): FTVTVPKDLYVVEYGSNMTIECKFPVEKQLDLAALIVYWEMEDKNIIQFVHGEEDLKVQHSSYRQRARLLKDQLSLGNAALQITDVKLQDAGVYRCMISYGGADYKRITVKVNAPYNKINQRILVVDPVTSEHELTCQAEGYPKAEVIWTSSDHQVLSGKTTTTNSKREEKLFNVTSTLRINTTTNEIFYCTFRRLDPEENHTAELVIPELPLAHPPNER
In short: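 Human PD-L1 (19-238, His-tag) 10 nM and PD-1 (25-167, Fc-tag) 3 nM preincubated 40 min with inhibitor in PBS pH 7.4, 0.05% Tween-20, 0.1% BSA, 1% DMSO, 25 °C. Eu-anti-human IgG (1 nM) and anti-His-APC (20 nM) added, 60 min, 665/620 nm ratio; IC50 from percent control activity versus log concentration.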

PDL1 = PDL1 Jurkat-NFAT Reporter Assay; type: cell-based; details: Homo sapiens; Hep3B-OS8-hPDL1 with Jurkat-NFAT-PD1 cells, 6 hours, luciferase
Protocol: Example 109. PDL1 Jurkat-NFAT Reporter Assay
Preparation of Hep3B-OS8-hPDL1
1. Hep3B-OS8-hPDL1 cells were cultured in 1640 medium supplemented with 10% fetal bovine serum, 1% penicillin and streptomycin, in which 100 μg/mL G418 and Hygromycin B were also added.
2. Cells were re-suspended with RPMI 1640 medium containing 10% FBS and the cell density was adjusted to 1.25×10^5 cells/mL.
3. Cells were seeded into 96-well flat bottom plate (1.25×10^4 cells/100 μL/well).
b. Compounds solutions preparation
4. Removed the medium from pre-plated Hep3B-OS8-PDL1 cells. Washed once with 200 μL Assay Medium.
5. Prepared the Compounds dilutions in RPMI 1640 medium with 10% FBS according to the Layout.
6. Added compounds into each well in a volume of 50 μL in 9 concentrations ([…])}. Keytruda will be included as positive control at the concentration of 5 μg/mL.
7. Incubated for 20-30 min at 37° C., 5% CO2.
c. Preparation of Jurkat-NFAT-PD1
8. Jurkat-NFAT-PD1 cells were cultured in 1640 medium supplemented with 10% fetal bovine serum, 1% penicillin and streptomycin, in which 1000 μg/mL Hygromycin B and […] puromycin were also added.
9. On the second day of assay, the cells were re-suspended with RPMI 1640 medium containing 10% FBS and the cell density was adjusted to 2.5×10^5 cells/mL.
10. […]

IC50 (PD-1/PD-L1) | EC50 (PDL1) | SMILES
< 10 nM | < 500 nM | O=C1CC[C@@H](Cn2cnn3cc(-c4cccc(-c5cccc(-c6cc7c(=O)n(C[C@@H]8CCC(=O)N8)cnn7c6)c5Cl)c4Cl)cc3c2=O)N1 [Compound 1, 6,6′-(2,2′-dichloro-[1,1′-biphenyl]-3,3′-diyl)bis(3-((5-oxopyrrolidin-2-yl)methyl)pyrrolo[2,1-f][1,2,4]triazin-4(3H)-one)]
10 to 100 nM | ≥ 500 nM | Cn1c(CNC[C@@H]2CCC(=O)N2)cn2cc(-c3cccc(-c4cccc(-c5cc6c(=O)n(C)c(CNC[C@@H]7CCC(=O)N7)cn6c5)c4Cl)c3Cl)cc2c1=O [Compound 74, 7,7′-(2,2′-dichloro-[1,1′-biphenyl]-3,3′-diyl)bis(2-methyl-3-(((((S)-5-oxopyrrolidin-2-yl)methyl)amino)methyl)pyrrolo[1,2-a]pyrazin-1(2H)-one)]
